Laboratory results published in patent US20250100995A1, “CEREBLON BINDING COMPOUNDS, COMPOSITIONS THEREOF, AND METHODS OF TREATMENT THEREWITH” (CELGENE CORPORATION, priority 2021, published 2025).
Structures can show the parent of a compound that is named as a salt.

Target: T1, AR (Homo sapiens, UniProt P10275)
T1 construct: endogenous in cells; host or cells: VCaP cells
T1 sequence (P10275 1-920): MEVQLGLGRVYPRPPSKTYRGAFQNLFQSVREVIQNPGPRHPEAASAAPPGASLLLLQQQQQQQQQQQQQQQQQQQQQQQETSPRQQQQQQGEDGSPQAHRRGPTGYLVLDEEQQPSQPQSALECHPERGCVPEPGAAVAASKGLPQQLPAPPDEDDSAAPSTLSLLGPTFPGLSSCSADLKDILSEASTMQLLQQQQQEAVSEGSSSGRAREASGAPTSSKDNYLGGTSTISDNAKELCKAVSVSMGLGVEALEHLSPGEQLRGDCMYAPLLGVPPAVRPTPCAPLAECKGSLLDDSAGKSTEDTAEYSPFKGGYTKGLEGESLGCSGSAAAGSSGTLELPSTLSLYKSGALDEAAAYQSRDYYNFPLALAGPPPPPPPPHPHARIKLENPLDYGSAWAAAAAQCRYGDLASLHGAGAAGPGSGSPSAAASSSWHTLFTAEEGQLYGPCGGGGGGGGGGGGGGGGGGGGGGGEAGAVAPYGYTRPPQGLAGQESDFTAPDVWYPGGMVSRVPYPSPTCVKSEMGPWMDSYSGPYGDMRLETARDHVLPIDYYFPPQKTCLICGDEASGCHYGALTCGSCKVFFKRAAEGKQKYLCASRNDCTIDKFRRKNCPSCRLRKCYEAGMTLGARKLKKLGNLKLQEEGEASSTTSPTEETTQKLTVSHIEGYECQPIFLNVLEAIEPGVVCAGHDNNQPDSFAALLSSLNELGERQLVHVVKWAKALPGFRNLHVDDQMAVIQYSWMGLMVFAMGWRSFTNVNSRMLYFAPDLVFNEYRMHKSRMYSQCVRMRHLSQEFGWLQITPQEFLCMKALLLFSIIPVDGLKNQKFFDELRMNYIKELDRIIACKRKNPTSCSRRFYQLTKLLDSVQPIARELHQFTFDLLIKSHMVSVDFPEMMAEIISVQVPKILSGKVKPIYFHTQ
Experiment: VCAP AR Degradation Assay
Type: cell-based
Conditions: VCaP cells, 24 h, AR ELISA; for DC50: concentration of compound when AR level = 50% of DMSO control; for Y: lowest measured AR level normalized to DMSO control (AR degradation efficiency)
Experimental: VCAP AR Degradation Assay. Test compounds were pre-dispensed into a Corning CellBind 96-well clear bottom plate (Cat #3300) using an acoustic dispenser to make a 10-point concentration series at 1:3 dilution for each compound. The final top concentration of each compound was 5 μM. DMSO at a final concentration of 0.1% was used as a control. VCaP cells cultured in DMEM with 8% fetal bovine serum (FBS) were seeded at 50K cells per well in a 200 μL volume into the compound plate and incubated at 37° C. in a CO2 incubator for 24 h. The medium was carefully removed from the cells and the plate was placed on ice. One hundred μL of ice-cold 1× cell lysis buffer from Cell Signaling Technologies (Cat #9803) was added to each well of the cells and the plate was incubated at 4° C. on a shaker for 1 h. Fifteen μL of cell lysate was used for AR ELISA detection using a PathScan Total Sandwich AR ELISA kit (Cell Signaling Technology, Cat #12580). AR levels in compound-treated wells were normalized to that of DMSO control and expressed as percent of control (PoC) (y). A Four Parameter Logistic Model (Sigmoidal Dose-Response Model) was used to determine the compound's DC50, and EC50, using the following equation: […]
The lowest measured AR level normalized to DMSO control in response to compound treatment, termed Y value, was used to characterize the compound-mediated AR degradation efficiency.

SMILES | DC50 | Y
C[C@@H]1CN(CCO[C@H]2CC[C@H](N3C(=S)N(c4ccc(C#N)c(C(F)(F)F)c4)C(=O)C3(C)C)CC2)C[C@H](C)N1CCCOc1cc(C2CCC(=O)NC2=O)ccn1 (stereo partly drawn) [Cmpd 16, 4-(3-(trans-4-(2-((3R,5S)-4-(3-((4-(2,6-Dioxopiperidin-3-yl)pyridin-2-yl)oxy)propyl)-3,5-dimethylpiperazin-1-yl)ethoxy)cyclohexyl)-4,4-dimethyl-5-oxo-2-thioxoimidazolidin-1-yl)-2-(trifluoromethyl)benzonitrile hydrochloride] | 50 to 200 nM | *** (40%<Y<80%)
C[C@@H]1CN(CCCC[C@H]2CC[C@H](N3C(=S)N(c4ccc(C#N)c(C(F)(F)F)c4)C(=O)C3(C)C)CC2)C[C@H](C)N1CC(=O)Nc1cc(N2CCC(=O)NC2=O)ccn1 [Cmpd 17, 2-((2R,6S)-4-(4-((trans)-4-(3-(4-Cyano-3-(trifluoromethyl)phenyl)-5,5-dimethyl-4-oxo-2-thioxoimidazolidin-1-yl)cyclohexyl)butyl)-2,6-dimethylpiperazin-1-yl)-N-(4-(2,4-dioxotetrahydropyrimidin-1(2H)-yl)pyridin-2-yl)acetamide] | 5 to 50 nM | ** (20%<Y≤40%)
C[C@@H]1CN(CCCC[C@H]2CC[C@H](N3C(=S)N(c4ccc(C#N)c(C(F)(F)F)c4)C(=O)C3(C)C)CC2)C[C@H](C)N1CC(=O)Nc1ccc(N2CCC(=O)NC2=O)cn1 [Cmpd 18, 2-((2R,6S)-4-(4-((trans)-4-(3-(4-Cyano-3-(trifluoromethyl)phenyl)-5,5-dimethyl-4-oxo-2-thioxoimidazolidin-1-yl)cyclohexyl)butyl)-2,6-dimethylpiperazin-1-yl)-N-(5-(2,4-dioxotetrahydropyrimidin-1(2H)-yl)pyridin-2-yl)acetamide] | 5 to 50 nM | ** (20%<Y≤40%)
C[C@@H]1CN(CCCC[C@H]2CC[C@H](N3C(=S)N(c4ccc(C#N)c(C(F)(F)F)c4)C(=O)C3(C)C)CC2)C[C@H](C)N1CC(=O)Nc1ccc(C2CCC(=O)NC2=O)cn1 (stereo partly drawn) [Cmpd 19, 2-((2R,6S)-4-(4-((trans)-4-(3-(4-Cyano-3-(trifluoromethyl)phenyl)-5,5-dimethyl-4-oxo-2-thioxoimidazolidin-1-yl)cyclohexyl)butyl)-2,6-dimethylpiperazin-1-yl)-N-(5-(2,6-dioxopiperidin-3-yl)pyridin-2-yl)acetamide] | ≤ 5 nM | * (0<Y≤20%)
CC1(C)C(=O)N(c2ccc(C#N)c(C(F)(F)F)c2)C(=S)N1[C@H]1CC[C@H](CCCN2CCN(CC(=O)Nc3cc(C4CCC(=O)NC4=O)ccn3)[C@@H](C(F)(F)F)C2)CC1 (stereo partly drawn) [Cmpd 20, 2-((R)-4-(3-((trans)-4-(3-(4-Cyano-3-(trifluoromethyl)phenyl)-5,5-dimethyl-4-oxo-2-thioxoimidazolidin-1-yl)cyclohexyl)propyl)-2-(trifluoromethyl)piperazin-1-yl)-N-(4-(2,6-dioxopiperidin-3-yl)pyridin-2-yl)acetamide] | 5 to 50 nM | ** (20%<Y≤40%)
CC1(C)C(=O)N(c2ccc(C#N)c(C(F)(F)F)c2)C(=S)N1[C@H]1CC[C@H](OCCN2CCN(CC(=O)Nc3cc(C4CCC(=O)NC4=O)ccn3)[C@@H](C(F)(F)F)C2)CC1 (stereo partly drawn) [Cmpd 21, 2-((R)-4-(2-(((trans)-4-(3-(4-Cyano-3-(trifluoromethyl)phenyl)-5,5-dimethyl-4-oxo-2-thioxoimidazolidin-1-yl)cyclohexyl)oxy)ethyl)-2-(trifluoromethyl)piperazin-1-yl)-N-(4-(2,6-dioxopiperidin-3-yl)pyridin-2-yl)acetamide] | 5 to 50 nM | * (0<Y≤20%)
CC1(C)C(=O)N(c2cnc(C#N)c(C(F)(F)F)c2)C(=S)N1[C@H]1CC[C@H](OCCN2CCN(CC(=O)Nc3cc(C4CCC(=O)NC4=O)ccn3)[C@@H](C(F)(F)F)C2)CC1 (stereo partly drawn) [Cmpd 22, 2-((R)-4-(2-(((trans)-4-(3-(6-Cyano-5-(trifluoromethyl)pyridin-3-yl)-5,5-dimethyl-4-oxo-2-thioxoimidazolidin-1-yl)cyclohexyl)oxy)ethyl)-2-(trifluoromethyl)piperazin-1-yl)-N-(4-(2,6-dioxopiperidin-3-yl)pyridin-2-yl)acetamide] | ≤ 5 nM | * (0<Y≤20%)
CC1(C)C(=O)N(c2cnc(C#N)c(C(F)(F)F)c2)C(=S)N1[C@H]1CC[C@H](CCCN2CCN(CC(=O)Nc3cc(C4CCC(=O)NC4=O)ccn3)[C@@H](C(F)(F)F)C2)CC1 (stereo partly drawn) [Cmpd 23, 2-((R)-4-(3-((trans)-4-(3-(6-Cyano-5-(trifluoromethyl)pyridin-3-yl)-5,5-dimethyl-4-oxo-2-thioxoimidazolidin-1-yl)cyclohexyl)propyl)-2-(trifluoromethyl)piperazin-1-yl)-N-(4-(2,6-dioxopiperidin-3-yl)pyridin-2-yl)acetamide] | 5 to 50 nM | * (0<Y≤20%)
CC1(C)C(=O)N(c2ccc(C#N)c(C(F)(F)F)c2)C(=S)N1[C@H]1CC[C@H](OCCCN2CCN(CC(=O)Nc3cc(C4CCC(=O)NC4=O)ccn3)[C@@H](C(F)(F)F)C2)CC1 (stereo partly drawn) [Cmpd 24, 2-((R)-4-(3-(((trans)-4-(3-(4-Cyano-3-(trifluoromethyl)phenyl)-5,5-dimethyl-4-oxo-2-thioxoimidazolidin-1-yl)cyclohexyl)oxy)propyl)-2-(trifluoromethyl)piperazin-1-yl)-N-(4-(2,6-dioxopiperidin-3-yl)pyridin-2-yl)acetamide] | ≤ 5 nM | * (0<Y≤20%)
CC1(C)C(=O)N(c2cnc(C#N)c(C(F)(F)F)c2)C(=S)N1[C@H]1CC[C@H](OCCCN2CCN(CC(=O)Nc3cc(C4CCC(=O)NC4=O)ccn3)[C@@H](C(F)(F)F)C2)CC1 (stereo partly drawn) [Cmpd 25, 2-((R)-4-(3-(((trans)-4-(3-(6-Cyano-5-(trifluoromethyl)pyridin-3-yl)-5,5-dimethyl-4-oxo-2-thioxoimidazolidin-1-yl)cyclohexyl)oxy)propyl)-2-(trifluoromethyl)piperazin-1-yl)-N-(4-(2,6-dioxopiperidin-3-yl)pyridin-2-yl)acetamide] | ≤ 5 nM | * (0<Y≤20%)
C[C@@H]1C[C@H](OCCO[C@H]2CC[C@H](N3C(=S)N(c4cnc(C#N)c(C(F)(F)F)c4)C(=O)C3(C)C)CC2)C[C@H](C)N1CC(=O)Nc1cc(C2CCC(=O)NC2=O)ccn1 (stereo partly drawn) [Cmpd 26, 2-((2R,4r,6S)-4-(2-(((trans)-4-(3-(6-Cyano-5-(trifluoromethyl)pyridin-3-yl)-5,5-dimethyl-4-oxo-2-thioxoimidazolidin-1-yl)cyclohexyl)oxy)ethoxy)-2,6-dimethylpiperidin-1-yl)-N-(4-(2,6-dioxopiperidin-3-yl)pyridin-2-yl)acetamide] | ≤ 5 nM | ** (20%<Y≤40%)
C[C@@H]1C[C@H](OCC[C@H]2CC[C@H](N3C(=S)N(c4ccc(C#N)c(C(F)(F)F)c4)C(=O)C3(C)C)CC2)C[C@H](C)N1CC(=O)Nc1cc(C2CCC(=O)NC2=O)ccn1 (stereo partly drawn) [Cmpd 27, 2-((2R,4r,6S)-4-(2-((trans)-4-(3-(4-Cyano-3-(trifluoromethyl)phenyl)-5,5-dimethyl-4-oxo-2-thioxoimidazolidin-1-yl)cyclohexyl)ethoxy)-2,6-dimethylpiperidin-1-yl)-N-(4-(2,6-dioxopiperidin-3-yl)pyridin-2-yl)acetamide] | 5 to 50 nM | ** (20%<Y≤40%)
C[C@@H]1C[C@H](OCCC[C@H]2CC[C@H](N3C(=S)N(c4ccc(C#N)c(C(F)(F)F)c4)C(=O)C3(C)C)CC2)C[C@H](C)N1CC(=O)Nc1cc(C2CCC(=O)NC2=O)ccn1 (stereo partly drawn) [Cmpd 28, 2-((2R,4r,6S)-4-(3-((trans)-4-(3-(4-Cyano-3-(trifluoromethyl)phenyl)-5,5-dimethyl-4-oxo-2-thioxoimidazolidin-1-yl)cyclohexyl)propoxy)-2,6-dimethylpiperidin-1-yl)-N-(4-(2,6-dioxopiperidin-3-yl)pyridin-2-yl)acetamide] | 5 to 50 nM | ** (20%<Y≤40%)
